Measured values: patent US8846719B2, “Isoxazolo-pyridine derivatives” (Roche Palo Alto LLC, priority 2007, dated 2014)

Target: human GABA A receptor α5β3γ2 (Homo sapiens (Human), UniProt P18507+P31644)
Experiment: [3H]flumazenil competition binding assay, human GABA A α5β3γ2 receptors expressed in HEK293 cells
Conditions: human receptor; displacement of [3H]flumazenil (0.5 nM); means of two determinations; read-out: hKi GABAAa5
In short: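 Competition for [3H]flumazenil binding on membranes of HEK293 cells transiently transfected with human α5β3γ2 receptors, in Krebs-tris buffer pH 7.5.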

| Compound | Ki |
| --- | --- |
| Cc1onc(-c2ccccc2)c1COc1ccc(C(=O)NC2CC(OCc3ccccc3)C2)cn1 (stereo not drawn) [Example 230, (cis or trans)-N-(3-Benzyloxy-cyclobutyl)-6-(5-methyl-3-phenyl-isoxazol-4-ylmethoxy)-nicotinamide] | 1.2 nM |
| Cc1onc(-c2ccccc2)c1COc1ccc(C(=O)N[C@@H](Cc2ccccc2)C(=O)O)cn1 [Example 231, (S)-2-{[6-(5-Methyl-3-phenyl-isoxazol-4-ylmethoxy)-pyridine-3-carbonyl]-amino}-3-phenyl-propionic acid] | 28 nM |
| Cc1onc(-c2ccccc2)c1COc1ccc(C(=O)NC2(C)COC2)cn1 [Example 232, N-(3-Methyl-oxetan-3-yl)-6-(5-methyl-3-phenyl-isoxazol-4-ylmethoxy)-nicotinamide] | 1.4 nM |
| CCCCS(=O)(=O)NC(=O)c1ccc(OCc2c(-c3ccccc3)noc2C)nc1 [Example 233, Butane-1-sulfonic acid [6-(5-methyl-3-phenyl-isoxazol-4-ylmethoxy)-pyridine-3-carbonyl]-amide] | 32.2 nM |
| Cc1onc(-c2ccccc2)c1COc1ccc(C(=O)NC(C)C(F)(F)F)cn1 (stereo not shown) [Example 234, 6-(5-Methyl-3-phenyl-isoxazol-4-ylmethoxy)-N-(2,2,2-trifluoro-1-methyl-ethyl)-nicotinamide] | 0.6 nM |
| Cc1onc(-c2ccccc2)c1COc1ccc(C(=O)N[C@@H](C)C(F)(F)F)cn1 [Example 235, 6-(5-Methyl-3-phenyl-isoxazol-4-ylmethoxy)-N—((S)-2,2,2-trifluoro-1-methyl-ethyl)-nicotinamide] | 1.9 nM |
| Cc1onc(-c2ccccc2)c1COc1ccc(C(=O)N(C)S(=O)(=O)C2CC2)cn1 [Example 236, Cyclopropanesulfonic acid methyl-[6-(5-methyl-3-phenyl-isoxazol-4-ylmethoxy)-pyridine-3-carbonyl]-amide] | 36.7 nM |
| Cc1onc(-c2ccccc2)c1COc1ccc(C(=O)Nc2cnn(C)c2)cn1 [Example 237, 6-(5-Methyl-3-phenyl-isoxazol-4-ylmethoxy)-N-(1-methyl-1H-pyrazol-4-yl)-nicotinamide] | 1.1 nM |
| Cc1onc(-c2ccccc2)c1COc1ccc(C(=O)n2ccc(=O)[nH]2)cn1 [Example 238, 1-[6-(5-Methyl-3-phenyl-isoxazol-4-ylmethoxy)-pyridine-3-carbonyl]-1,2-dihydro-pyrazol-3-one] | 34.9 nM |
| Cc1onc(-c2ccccc2)c1COc1ccc(C(=O)NC2(C)CC2)cn1 [Example 239, N-(1-Methyl-cyclopropyl)-6-(5-methyl-3-phenyl-isoxazol-4-ylmethoxy)-nicotinamide] | 3.6 nM |
| Cc1onc(-c2ccccc2)c1COc1ccc(C(=O)N2CCC2)cn1 [Example 240, Azetidin-1-yl-[6-(5-methyl-3-phenyl-isoxazol-4-ylmethoxy)-pyridin-3-yl]-methanone] | 13.9 nM |
| COC1CN(C(=O)c2ccc(OCc3c(-c4ccccc4)noc3C)nc2)C1 [Example 241, (3-Methoxy-azetidin-1-yl)-[6-(5-methyl-3-phenyl-isoxazol-4-ylmethoxy)-pyridin-3-yl]-methanone] | 16 nM |
| Cc1onc(-c2ccccc2)c1COc1ccc(C(=O)N2CCSC2)cn1 [Example 242, [6-(5-Methyl-3-phenyl-isoxazol-4-ylmethoxy)-pyridin-3-yl]-thiazolidin-3-yl-methanone] | 37.3 nM |
| Cc1onc(-c2ccccc2)c1COc1ccc(C(=O)NC2(C#N)CC2)cn1 [Example 243, N-(1-Cyano-cyclopropyl)-6-(5-methyl-3-phenyl-isoxazol-4-ylmethoxy)-nicotinamide] | 2.9 nM |
| Cc1onc(-c2ccccc2)c1COc1ccc(C(=O)Nc2ccn(C)n2)cn1 [Example 244, 6-(5-Methyl-3-phenyl-isoxazol-4-ylmethoxy)-N-(1-methyl-1H-pyrazol-3-yl)-nicotinamide] | 5.1 nM |
| Cc1noc(-c2ccc(OCc3c(-c4ccccc4)noc3C)nc2)n1 [Example 245, 5-(3-Methyl-[1,2,4]oxadiazol-5-yl)-2-(5-methyl-3-phenyl-isoxazol-4-ylmethoxy)-pyridine] | 3.3 nM |
| Cc1nnc(-c2ccc(OCc3c(-c4ccccc4)noc3C)nc2)[nH]1 [Example 246, 2-(5-Methyl-3-phenyl-isoxazol-4-ylmethoxy)-5-(5-methyl-4H-[1,2,4]triazol-3-yl)-pyridine] | 1.1 nM |
| CSc1ccc(OCc2c(-c3ccccc3)noc2C)nc1 [Example 247, 2-(5-Methyl-3-phenyl-isoxazol-4-ylmethoxy)-5-methylsulfanyl-pyridine] | 17.7 nM |
| Cc1onc(-c2ccccc2)c1COc1ccc([S+](C)[O-])cn1 (stereo not shown) [Example 248, 5-Methanesulfinyl-2-(5-methyl-3-phenyl-isoxazol-4-ylmethoxy)-pyridine] | 28.1 nM |
| Cc1cccc(-c2noc(C)c2COc2ccc(C(=O)NC3CCOCC3)cn2)c1 [Example 249, 6-(5-Methyl-3-m-tolyl-isoxazol-4-ylmethoxy)-N-(tetrahydro-pyran-4-yl)-nicotinamide] | 3.2 nM |

| Compound | Ki |
| --- | --- |
| Cc1cccc(-c2noc(C)c2COc2ccc(C(=O)NC(C)C)cn2)c1 [Example 250, N-Isopropyl-6-(5-methyl-3-m-tolyl-isoxazol-4-ylmethoxy)-nicotinamide] | 3.1 nM |
| Cc1ccc(-c2noc(C)c2COc2ccc(C(=O)NC3CCOCC3)cn2)cc1 [Example 251, 6-(5-Methyl-3-p-tolyl-isoxazol-4-ylmethoxy)-N-(tetrahydro-pyran-4-yl)-nicotinamide] | 0.9 nM |
| Cc1ccc(-c2noc(C)c2COc2ccc(C(=O)NC(C)C)cn2)cc1 [Example 252, N-Isopropyl-6-(5-methyl-3-p-tolyl-isoxazol-4-ylmethoxy)-nicotinamide] | 1 nM |
| Cc1ccc(-c2noc(C)c2COc2ccc(C(=O)NC(C)C)cn2)c(F)c1 [Example 253, 6-[3-(2-Fluoro-4-methyl-phenyl)-5-methyl-isoxazol-4-ylmethoxy]-N-isopropyl-nicotinamide] | 0.8 nM |
| Cc1onc(-c2ccc(Cl)cc2)c1COc1ccc(C(=O)NC(C)(C)CO)cn1 [Example 254, 6-[3-(4-Chloro-phenyl)-5-methyl-isoxazol-4-ylmethoxy]-N-(2-hydroxy-1,1-dimethyl-ethyl)-nicotinamide] | 4.1 nM |
| Cc1onc(-c2ccc(Cl)cc2)c1COc1ccc(C(=O)Nc2cnn(C)c2)cn1 [Example 255, 6-[3-(4-Chloro-phenyl)-5-methyl-isoxazol-4-ylmethoxy]-N-(1-methyl-1H-pyrazol-4-yl)-nicotinamide] | 0.8 nM |
| Cc1onc(-c2ccc(Cl)cc2)c1COc1ccc(C(=O)N[C@H](C)CO)cn1 [Example 256, 6-[3-(4-Chloro-phenyl)-5-methyl-isoxazol-4-ylmethoxy]-N—((R)-2-hydroxy-1-methyl-ethyl)-nicotinamide] | 0.8 nM |
| Cc1onc(-c2ccc(Cl)cc2)c1COc1ccc(C(=O)N[C@@H](C)CO)cn1 [Example 257, 6-[3-(4-Chloro-phenyl)-5-methyl-isoxazol-4-ylmethoxy]-N—((S)-2-hydroxy-1-methyl-ethyl)-nicotinamide] | 0.5 nM |
| Cc1onc(-c2ccc(Cl)cc2)c1COc1ccc(C(=O)N[C@@H](C)C(F)(F)F)cn1 [Example 258, 6-[3-(4-Chloro-phenyl)-5-methyl-isoxazol-4-ylmethoxy]-N—((S)-2,2,2-trifluoro-1-methyl-ethyl)-nicotinamide] | 1.3 nM |
| Cc1onc(-c2cccc(F)c2F)c1COc1ccc(C(=O)NC(C)C)cn1 [Example 261, 6-[3-(2,3-Difluoro-phenyl)-5-methyl-isoxazol-4-ylmethoxy]-N-isopropyl-nicotinamide] | 26.5 nM |
| Cc1onc(-c2cccc(F)c2F)c1COc1ccc(C(=O)NC2CCOCC2)cn1 [Example 262, 6-[3-(2,3-Difluoro-phenyl)-5-methyl-isoxazol-4-ylmethoxy]-N-(tetrahydro-pyran-4-yl)-nicotinamide] | 5.2 nM |
| Cc1onc(-c2ccc(F)cc2F)c1COc1ccc(C(=O)NC(C)C)cn1 [Example 263, 6-[3-(2,4-Difluoro-phenyl)-5-methyl-isoxazol-4-ylmethoxy]-N-isopropyl-nicotinamide] | 2.4 nM |
| Cc1onc(-c2ccc(F)cc2F)c1COc1ccc(C(=O)NC2CCOCC2)cn1 [Example 264, 6-[3-(2,4-Difluoro-phenyl)-5-methyl-isoxazol-4-ylmethoxy]-N-(tetrahydro-pyran-4-yl)-nicotinamide] | 2.3 nM |
| Cc1onc(-c2cc(F)ccc2F)c1COc1ccc(C(=O)NC(C)C)cn1 [Example 265, 6-[3-(2,5-Difluoro-phenyl)-5-methyl-isoxazol-4-ylmethoxy]-N-isopropyl-nicotinamide] | 27.3 nM |
| Cc1onc(-c2cc(F)ccc2F)c1COc1ccc(C(=O)NC2CCOCC2)cn1 [Example 266, 6-[3-(2,5-Difluoro-phenyl)-5-methyl-isoxazol-4-ylmethoxy]-N-(tetrahydro-pyran-4-yl)-nicotinamide] | 4.3 nM |
| Cc1onc(-c2ccc(F)c(F)c2)c1COc1ccc(C(=O)NC(C)(C)CO)cn1 [Example 267, 6-[3-(3,4-Difluoro-phenyl)-5-methyl-isoxazol-4-ylmethoxy]-N-(2-hydroxy-1,1-dimethyl-ethyl)-nicotinamide] | 9.3 nM |
| Cc1onc(-c2ccc(F)c(F)c2)c1COc1ccc(C(=O)NCC(C)(C)CO)cn1 [Example 268, 6-[3-(3,4-Difluoro-phenyl)-5-methyl-isoxazol-4-ylmethoxy]-N-(3-hydroxy-2,2-dimethyl-propyl)-nicotinamide] | 3.3 nM |
| Cc1onc(-c2ccc(F)c(F)c2)c1COc1ccc(C(=O)NCC(C)(C)O)cn1 [Example 269, 6-[3-(3,4-Difluoro-phenyl)-5-methyl-isoxazol-4-ylmethoxy]-N-(2-hydroxy-2-methyl-propyl)-nicotinamide] | 6.7 nM |
| Cc1onc(-c2ccc(Cl)cc2F)c1COc1ccc(C(=O)NC(C)C)cn1 [Example 270, 6-[3-(4-Chloro-2-fluoro-phenyl)-5-methyl-isoxazol-4-ylmethoxy]-N-isopropyl-nicotinamide] | 0.4 nM |
| COC(=O)c1ccc(OCc2c(-c3ccccn3)noc2C)nc1 [Example 271, 6-(5-Methyl-3-pyridin-2-yl-isoxazol-4-ylmethoxy)-nicotinic acid methyl ester] | 3.8 nM |
